The source of these data is a melting point compilation (Tetko et al.; mined from patent text by program, amines drawn as free bases though some values may be those of a salt).

Structures are written as SMILES. Some results are limits rather than exact numbers.

In turn, `CCOC(=O)Cn1cc(C(=O)Nc2ccc(OCC(C)(C)C)c(C#N)c2)c(C)n1` registered a melting point of 240 °C. The value for `CCN(CC)CCCNC(=S)N1CC(Oc2ccc(C(F)(F)F)cc2)C1` was 109 to 110 °C; that for `Nc1cc(C(=O)O)ccc1-c1nc(-c2ccc(C(F)(F)F)cc2)no1` was > 300 °C; that for `CN1CC(C(=O)c2cccn2Cc2ccc(F)cc2)=C(O)C1=O` was 150 to 151 °C. The value for `c1cc(-n2cccc2)cc(-n2cnc3cc(-c4ccoc4)ccc32)c1` was 144 to 145 °C; that for `CC#Cc1ccc(NC(=O)c2ccccc2NCc2ccc(OC)nc2)cc1C(F)(F)F` was 123 to 124 °C; that for `CC1=N/C(=C\c2c[nH]c3ncccc23)C(=O)N1` was 277 to 281 °C.

`CC(=O)C(=O)N[C@H](CO[N+](=O)[O-])Cc1ccccc1` had a melting point of 72 to 75 °C. The compound `Cn1nnnc1SCCCCSC1=Nc2ccccc2C(=O)NN1` yielded a melting point of 94 to 95 °C. `CCC(=O)c1cc[nH]c(=O)c1` displayed a melting point of 168 °C. Take `Cc1ccc(Oc2ccccc2C(=N)NN)c(O)c1`: the melting point was > 260 °C. For `O=C1CCC(C(=O)O)(c2ccc(F)cc2)CC1`, the melting point was 117 to 122 °C. The value for `c1ccc2c(N3CCNCC3)nsc2c1` was 88 to 90 °C. In the case of `COc1cccc(CCc2c(CCNC(=O)CCCCC(=O)O)ccc(OC)c2OC)c1`, the melting point lay in the range of 119 to 121 °C. The value for `CC(C)(C)OC(=O)N[C@H]1CCCCNC1=O` was 147 to 149 °C; that for `O=C(O)c1ccc(OCCCCCCc2ccc3cc(OCc4ccccc4)c(OCc4ccccc4)cc3c2)cc1` was 153 to 155 °C.

`COC(=O)CCc1cc(C(=O)c2cccc(C(=O)OC)n2)ccc1OCCCC/C=C/c1ccc(OC)cc1` yielded a melting point of 80 to 82 °C.

Compound `CC(C)C(=O)Nc1ccc(Br)c(C(F)(F)F)c1` showed a melting point of 126 to 128 °C. The value for `Cc1ccc2c(c1)Cn1ccnc1N2` was 265 °C. Under `Nc1ncnc2[nH]cc(-c3ccc(Oc4ccccc4)cc3)c12` stands 272 °C; under `O=C(NCC(=O)c1cccs1)c1ccccc1`, 146 to 147 °C. The value for `Cc1cnc(-c2cc(-c3ccc(Cl)cc3)c(N3CCOCC3)s2)cc1OCC(F)(F)F` was 177 to 178 °C. Regarding `CC(=O)Oc1ccc(Cc2ccc(C(=O)O)nc2)cc1`, the melting point lay in the range of 116 to 119 °C. The value for `O=C1CCCC2=C1C(c1cccc(Cl)c1)C1=C(CCCC1)N2` (centres undefined) was 249 to 250 °C; that for `CCN1C(=O)CCc2cc(Sc3cccc([C@@]4(O)CCO[C@@H](C)C4)c3)ccc21` was 148 to 149 °C.

Regarding `N=C1NCCCN1Cc1ccc(Cl)nc1`, the melting point came to 220 °C. The value for `O=S(=O)(c1ccccc1)n1ccc2ccc3c4cc(Br)ccc4[nH]c3c21` was 173 to 175 °C; that for `CC(C)CC(=O)Nc1cccc(-c2ccnc3c(-c4cccc(-c5ccccc5)c4)cnn23)c1` was 182 to 185 °C; that for `COc1cc(OC)c(/C=C/S(=O)(=O)Cc2ccc(OC)c([N+](=O)[O-])c2)c(OC)c1` was 186 to 187 °C. The value for `COc1cccc2c(=O)[nH]ccc12` was 215 to 217 °C; that for `CCCc1nn(-c2ccc(C(F)(F)F)cn2)cc1CCCOc1c(CC(=O)O)cccc1OC` was 122 to 123 °C; that for `CS(=O)(=O)c1ccc(-n2nc(C(F)(F)F)nc2-c2ccc(Br)cc2)cn1` was 141 to 143 °C.

`O=C(CCl)Nc1ccc2ncnc(Nc3cccc(Br)c3)c2c1`: the melting point was > 300 °C.

In the case of `NC(=O)CC1CCC(OCc2ccccc2)c2sccc21` (centres undefined), the melting point lay within 139 to 143 °C. Regarding `O=c1[nH]c(Cc2cccc(O)c2)cc2ccccc12`, the melting point is 225 to 227 °C. Under `COc1ccc(-c2cc(C(=O)NCc3ccccc3)c(=O)n(CC3CCCC3)n2)cc1` stands 108 °C; under `CS(=O)(=O)c1ccc(OC(Cc2ccc(OCCNC(=O)c3ccc(-c4ccccn4)cc3)cc2)C(=O)O)cc1` (centres undefined), 231 to 233 °C; under `CC(=O)N1CCN=C1Nc1cccc2c1CCC2`, 180 to 182 °C. Consider `O=C(O)/C=C\C(=O)N1CCc2cc(S(=O)(=O)N3CCN(c4cccc(Cl)c4)CC3)ccc21`, for which the melting point was 191 to 192 °C. `Cc1cc(NC(=O)c2cccc(CCc3cccnc3)c2)ccc1C(C)C` showed a melting point of 143 to 144 °C. The value for `COc1ccc(/C=C/C(=O)c2ccc(OCc3ccccc3)cc2OCc2ccccc2)c(OC)c1C` was 125 °C; that for `COc1ccc(C2(C#Cc3cccc(-c4nnc(C)o4)c3)CCCC(=O)C2)cc1OC1CCCC1` (centres undefined) was 117 to 119 °C; that for `COC(=O)NNC(=O)Cc1ccccc1` was 94 to 95 °C. `CCC(C)C(NC(=O)OC)C(=O)NN(Cc1ccc(-c2cncs2)cc1)CC(O)C(Cc1ccccc1)NC(=O)C(NC(=O)OC)C(C)(C)C` (centres undefined): the melting point fell in the range of 139 to 141 °C. Under `Cc1ccncc1-n1nc(C)c(CC(=O)OCC2CC2)c1-c1ccccc1` stands 87 °C. `CC(O)c1ccc2cc(OCc3ccccc3)ccc2c1` (centres undefined) showed a melting point of 97 to 98 °C. The value for `Cc1sc(-c2ccccc2)nc1CCOc1ccc(N)cn1` was 89 to 91 °C; that for `N#Cc1nc(Cl)c(Cl)[nH]1` was 187 to 189 °C.

Consider `Cc1cc(C)cc(-n2c(C=CC3CC(O)CC(O)O3)c(C(C)C)c3ccccc3c2=O)c1` (mixture of isomers), for which the melting point lay within 180 to 182 °C.

Take `CN(O)CCCc1ccc2c(c1)C(=O)c1ccccc1CO2`: the melting point lay within 113 to 114 °C. Under `Cn1c(C#N)c(F)n(-c2ccc(Cl)cc2)c1=O` stands 105 °C. Consider `CC(C)(C)NC(=O)[C@@H]1C[C@H](Cl)CN1C(=O)[C@@H](O)[C@H](Cc1ccccc1)NC(=O)[C@H](CC(N)=O)NC(=O)c1cc2cc(F)ccc2[nH]1`, for which the melting point lay in the range of 141 to 143 °C. Under `COC(=O)c1nn(-c2ccccc2)c(=O)c2c1c1cc(Cl)ccc1n2C` stands 265 to 266 °C; under `COc1cc2ncnc(N3CCN(C(=S)Nc4ccc(S(=O)(=O)N5CCCCC5)cc4)CC3)c2cc1OC`, 149 to 150 °C. Under `O=[N+]([O-])c1ccc(S(=O)(=O)Nc2ccccc2)cc1` stands 154 to 156 °C; under `COC(=NS(=O)(=O)c1nc(-c2ccccc2Cl)ns1)C(C)C`, 75 to 76 °C. Compound `CS(=O)(=O)Nc1cc([C@@H](O)CNC2CCN(c3ccc(/C=C/C(=O)O)cc3)CC2)ccc1O` gave a melting point of 220 °C. The value for `Nc1ccn2c(=O)c(C(=O)O)ccc2c1` was > 250 °C; that for `Cc1cccc(CCN2CCC[C@H](C(C#N)(c3ccccc3)c3ccccc3)C2)c1` was 149 to 150 °C; that for `CSc1c(O)cncc1Oc1ccccc1` was 131 to 133 °C.

On to `CCCCN(CCCC)S(=O)(=O)c1ccc(Cl)c([N+](=O)[O-])c1`, for which the melting point was in the range of 67 to 68 °C.

On to `COC(=O)[C@@H](O)[C@H](CC(C)C)NC(=O)OC(C)(C)C`, for which the melting point is 84 to 85 °C.

In the case of `CCCCCCCCCCCc1cc2cc(C(=O)OCC)ccc2[nH]1`, the melting point fell in the range of 76 to 77 °C. The value for `COc1cc(OC)c(C(O)=S)cc1C` was 151 to 153 °C; that for `CCOC(=O)c1c[nH]nc1OC(C)C` was 55 to 56 °C; that for `Cc1cccc(NC(=O)NC2N=C(c3ccccc3F)c3ccccc3N(Cc3cc(C(C)(C)C)ccn3)C2=O)c1` (racemic) was 142 to 144 °C. The value for `CN(C)CCNC(=O)c1cc(Cl)c(N)cc1O` was 163 to 165 °C; that for `N#CC(C(=O)Nc1ccccc1Cl)C(=O)c1nn(-c2ccccc2)c2c1Cc1ccccc1-2` (centres undefined) was 295 to 297 °C.

As to `CNC(=O)NCCCCC1CCSS1` (centres undefined), the melting point fell in the range of 89 to 90 °C. The value for `O=C(NCc1cccnc1)c1ccc2n1Cc1ccccc1N(C(=O)c1ccc(-c3ccccc3CO)cc1)C2` was 119 to 121 °C. Under `OC1CCCN(CC(O)COc2ccc(-c3ccc(Cl)cc3)cc2)C1` (centres undefined) stands 95 to 97 °C; under `COC(=O)C(CSC(c1ccccc1)c1ccccc1)NC(=O)C(=O)NCCSC(c1ccccc1)c1ccccc1` (centres undefined), 131 °C; under `CCCCCCC[C@@H](O)[C@@H](NCc1ccccc1)C(=O)O`, 197 to 199 °C. The value for `Cc1cc2cc(NC(=O)Nc3ccc(Cl)cc3)ccc2[nH]1` was 257 to 260 °C; that for `CC(CS)C(=O)NC(CC(=O)O)C(=O)O` (centres undefined) was 129 to 131 °C; that for `COc1ccc2cc([C@H](C)C(=O)OCCO)ccc2c1` was 72 to 73 °C.

As to `O=C1c2cccc(SCc3ccccc3)c2C(=O)c2cccc(SCc3ccccc3)c21`, the melting point was in the range of 281 to 282 °C. Under `CCOC(=O)C1=C(N)NC(N)=C(C(=O)OC(C)C)C1c1ccccc1[N+](=O)[O-]` (centres undefined) stands 110 °C; under `Nc1cc(Cl)c(NCCO)cc1[N+](=O)[O-]`, 130 to 131 °C; under `CC(NS(=O)(=O)N1CCOCC1)P(=O)(c1ccccc1)c1ccccc1` (centres undefined), 215 to 217 °C.

The compound `CC1=C(C(=O)OCC2CCN(Cc3ccccc3)C2)C(c2cccc([N+](=O)[O-])c2)c2c(ccnc2OC(C)C)N1` (centres undefined) yielded a melting point of 125 to 128 °C.

For `COc1ccc(OC)c2c1COC2=O`, the melting point fell in the range of 168 to 170 °C. Under `CC(C)(C)OC(=O)N1CCC(=CS(=O)(=O)NC(=O)c2cc(C(F)(F)F)cc(C(F)(F)F)c2)CC1` stands 132 to 136 °C; under `CCCCn1c(N)c(N=O)c(=O)n(CCCC)c1=O`, 199 to 205 °C. Under `N#Cc1c(N)nc2ccc(N3CCOCC3)cc2c1Cl` stands 206 °C.

Take `Cc1ccc(S(=O)(=O)Nc2ccc(-c3ccccc3)cn2)cc1`: the melting point was 187 to 189 °C. Turning to `Cc1c(-c2ccccc2)c(N2CC[C@H](N(C)C)C2)c2oc(C(=O)N(C)CCc3ccccc3)nc2c1C#N`, the melting point was 138 to 141 °C.

The compound `COC(=O)c1cc(C(=O)NNC(=O)c2ccco2)c2cc(Cc3ccc(F)cc3)cnc2c1O` came in with a melting point of 207 to 210 °C. Under `COc1ccc(NC(=O)Nc2ccc(C(=O)O)cc2)cc1C12CC3CC(CC(C3)C1)C2` stands 140 to 141 °C.
